Reference: patent US20170172944A1, “METHODS OF TREATING MELANOMA” (Mitchell Woods Pharmaceuticals, Inc., priority 2014, published 2017)

Assays:
Assay type in all cases: cell-based, human
[1] = tested on: UACC-647 cells; assay: Migration and invasion towards 10% FBS (xCELLigence RTCA), UACC-647; settings: for effect of pretreatment on anti-migratory activity of MNF (100 nM) / migratory rate: UACC-647, H-89 20 μM; for effect of pretreatment on anti-migratory activity of MNF (100 nM): ICI 118,551 50 nM; for migratory rate: MNF 100 nM, Forskolin 10 μM
Protocol: (§1) Assays were performed using xCELLigence RTCA Analyzer. Serum-starved cells were allowed to migrate or invade towards 10% FBS via bare microporous PET membrane or Matrigel-coated membrane, respectively.
(§2) Migration and Invasion Assay.
(§3) Migration and invasion of UACC-647, M93-047 and UACC-903 towards 10% FBS were monitored using xCELLigence system
(§4) Serum-starved UACC-647, M93-047 and UACC-903 cells were plated onto unmodified or Matrigel-coated CIM-Plates. The cells were treated with (R,R′)-MNF or vehicle (DMSO, 0.1%). Migration and invasion towards 10% FBS was monitored using xCELLigence RTCA station. Times of half-maximal infiltration of the cells towards serum were calculated and plotted against (R,R′)-MNF concentration.
ICI 118,551 and H-89 pretreatment blocked inhibitory activity of (R,R′)-MNF on UACC-647, while Forskolin mimicked (R,R′)-MNF. UACC-647 were serum-starved, pretreated with ICI 118,551, Forskolin, H-89 or DMSO and plated onto unmodified CIM-Plates. Migration towards 10% FBS was monitored using xCELLigence RTCA station. […] Forskolin (activator of adenylyl cyclase, 10 μM) mimicked MNF (100 nM). […] Pretreatment with H-89 blocked anti-migratory activity of MNF (100 nM).

[2] = tested on: UACC647 cells; assay: [3H]-thymidine incorporation assay; settings: serum-starved UACC647 cells, 24 hours
Protocol: [^3H]-Thymidine Incorporation Assay.
Cells were seeded in 12-well plates at approximately 50,000 cells/well and incubated at 37° C. After 24 hours, the wells were rinsed with PBS and replaced with serum-free medium containing the appropriate concentration of the test compounds. After another 24-hour incubation at 37° C., 1 μCi of [^3H]-thymidine was added to each well and incubated at 37° C. for 16 hours. [^3H]-Thymidine incorporation into DNA was monitored after the cells were washed twice with PBS and then lysed in 600 μl of 0.1 N NaOH for 30 minutes with shaking. The lysate was then mixed with 3 mL of liquid scintillation cocktail (Beckman Coulter, Inc., Brea, Calif.), and radioactivity was measured by liquid scintillation counting using Beckman Coulter LS6000IC Scintillation Counter. Data are shown as CPM incorporated compared to the control cells.
(§5) UACC-647, M93-047 and UACC-903 cells were seeded out on E-Plates and allowed to settle. Cells were stimulated with MNF. Cellular proliferation and adherence was measured every 15 minutes using xCELLigence RTCA station. Serum-starved UACC647 cells were incubated with range of (R,R′)-MNF concentrations for 24 hours and the levels of [3H]thymidine incorporation were measured.

[3] = tested on: eukaryotic elongation factor 2 (eEF2) in UACC-647 cells; assay: eEF2 phosphorylation (Western blot), UACC-647; settings: UACC-647, serum starved 3 hours, 1 fM to 10 μM, 15 minutes
Protocol: (§6) Cells were lysed with RIPA buffer containing EGTA and EDTA (Boston BioProducts, Ashland, Mass.). The lysis buffer was mixed with a protease inhibitor cocktail (Sigma-Aldrich). Protein concentrations were measured using the bicinchoninic acid reagent (Thermo-Pierce Biotechnology, Inc., Rockford, Ill.). Proteins (20 μg/well) were separated on 4-12% precast gels (Invitrogen, Carlsbad, Calif.) using SDS-polyacrylamide gel electrophoresis under reducing conditions and were electrophoretically transferred onto polyvinylidene fluoride membrane (Invitrogen). Western blots were performed according to standard methods. The visualization of immunoreactive bands was performed using the ECL Plus Western Blotting Detection System (GE Healthcare, NJ) and their quantification was done by volume densitometry using Image J software and normalization to β-actin. […]
(§7) UACC-647, M93-047 and UACC-903 cells were serum starved for 3 hours and subjected to concentration gradient of (R,R′)-MNF (1 fM to 10 μM) or vehicle (DMSO, 0.1%) for 15 minutes. […] Proteins of interest were detected using (phospho)specific antibodies of rabbit origin and visualized by chemiluminescence. […] Levels of total and phosphorylated form of eEF2 were quantified in (R,R′)-MNF-treated cells by means of volume densitometry.

[4] = tested on: eukaryotic elongation factor 2 (eEF2) in M93-047 cells; assay: eEF2 phosphorylation (Western blot), M93-047; settings: M93-047, serum starved 3 hours, 1 fM to 10 μM, 15 minutes
Protocol: as §6, §7

[5] = tested on: melanoma cells (UACC-647, M93-047 and UACC-903); assay: [35S] methionine labeling, de novo protein synthesis; settings: 10 fM, 10 pM, 10 nM for 15 minutes, then [35S]Met/Cys labeling 30 minutes
Protocol: [^35S] Methionine Labeling.
Serum starved cells were incubated in serum-free medium without methionine and cysteine and treated with (R,R′)-MNF. Then, [^35S]Met/Cys labeling was carried out. Cell lysates were resolved by SDS-polyacrylamide gel electrophoresis and transferred onto PVD membrane, and autoradiography was performed. The membrane was probed with anti-β-actin antibody to confirm equal protein loading.
Serum starved (3 hours) UACC-647, M93-047 and UACC-903 cells were washed with PBS and incubated in serum-free medium without methionine and cysteine. Then, cells were treated with (R,R′)-MNF (10 fM, 10 pM, 10 nM) or incubated with vehicle (DMSO, 0.1%) for 15 minutes followed by [35S]Met/Cys labeling for 30 minutes. Cell lysates were resolved by SDS-PAGE and transferred onto PVD membrane, and autoradio-graphy was performed. The membrane was probed with anti-β-actin antibody to confirm equal protein loading. Amounts of de novo synthesized proteins were evaluated by means of volume densitometry. Obtained values were normalized to β-actin levels.

[6] = tested on: UACC-647 cells; assay: Scratch wound healing assay, UACC-647; settings: UACC-647, 100 pM to 10 μM, 24 hours
Protocol: (§8) A scratch wound was made with a cell scraper. Cells were pictured using Axiovert 200 microscope and AxioCam HRc camera. (Carl Zeiss)
(§9) UACC-647, M93-047 and UACC-903 cells were cultured until confluency. Uniform scratch wounds were made on the monolayer cultures using cell scraper and the cells were challenge with (R,R′)-MNF (100 pM to 10 μM) or vehicle (DMSO, 0.1%). Images were captured at the onset of the treatment and after 24 hours.

[7] = tested on: M93-047 cells; assay: Scratch wound healing assay, M93-047; settings: M93-047, 100 pM to 10 μM, 24 hours
Protocol: as §8, §9

[8] = tested on: M93-047 cells; assay: Migration and invasion towards 10% FBS (xCELLigence RTCA), M93-047
Protocol: as §1, §2, §3, §4

[9] = tested on: UACC647 cells; assay: Proliferation assay (xCELLigence RTCA), UACC647; settings: UACC647, E-Plates, measured every 15 minutes
Protocol: (§10) UACC-647, M93-047 and UACC-903 cells were seeded out on E-Plates and allowed to settle. Cells were stimulated with MNF. Cellular proliferation and adherence was measured every 15 min using xCELLigence RTCA station.
as §5

[10] = tested on: M93-047 cells; assay: Proliferation assay (xCELLigence RTCA), M93-047; settings: M93-047, E-Plates, measured every 15 minutes
Protocol: as §10, §5

[11] = tested on: UACC-903 cells; assay: Proliferation assay (xCELLigence RTCA), UACC-903; settings: UACC-903 cells (lacking EGFR)
Protocol: as §10, §5

[12] = tested on: phosphorylated ERK in UACC-647 cells; assay: Phosphorylated ERK levels, UACC-647
Protocol: (§11) Levels of ERK1/2 and its phosphorylated forms were determined using PathScan ELISA kits according to manufacturer's protocol (Perkin Elmer Alphascreen Surefire ERK1/2 assay kit, cat no. TGRES500).
(§12) UACC-647, M93-047 or UACC-903 cells were serum starved for 3 hours and subjected to compound of interest or vehicle for 15 minutes.

[13] = tested on: phosphorylated ERK in M93-047 cells; assay: Phosphorylated ERK levels, M93-047; settings: M93-047, serum starved 3 hours, 15 minutes
Protocol: as §11, §12

[14] = tested on: phosphorylated MEK in UACC-647 cells; assay: Phosphorylated MEK levels, UACC-647
Protocol: (R,R′)-MNF decreased basal phosphorylation levels of ERK and MEK. UACC-647, M93-047 or UACC-903 cells were serum starved for 3 hours and subjected to compound of interest or vehicle for 15 minutes. […] Cell pretreatment with 50 nM ICI 118,551 abolished MNF-evoked drop in phospho ERK levels in UACC647.

## O=S(=O)(NCCNC/C=C/c1ccc(Br)cc1)c1cccc2cnccc12 [H-89, reference compound]
[1]
  effect of pretreatment on anti-migratory activity of MNF (100 nM): blocked
  migratory rate: increased migratory rate

## COc1ccc(C[C@@H](C)NC[C@H](O)c2cc(O)cc(O)c2)c2ccccc12 [(R,R′)-MNF, (R,R′)-4′-methoxy-1-naphthylfenoterol]
[2]; Homo sapiens
  IC50: 136 nM
[2]; range of concentrations
  inhibition of incorporation of radiolabelled thymidine: 38±3.67%
[3]
  rapid phosphorylation of eEF2: induce rapid phosphorylation
[4]
  rapid phosphorylation of eEF2: induce rapid phosphorylation
[5]
  de novo protein synthesis: inhibit
[6]
  motility (scratch wound): inhibit motility
[7]
  motility (scratch wound): inhibit motility
[1]; UACC-647, Matrigel-coated CIM-Plates
  invasion towards 10% FBS: inhibit
[1]; UACC-647, unmodified CIM-Plates
  migration towards 10% FBS: inhibit migration
[1]
  migratory rate: decreased migratory rate
[8]; M93-047, Matrigel-coated CIM-Plates
  invasion towards 10% FBS: inhibit
[8]; M93-047, unmodified CIM-Plates
  migration towards 10% FBS: inhibit migration
[9]
  proliferation: inhibit proliferation
[10]
  proliferation: inhibit proliferation
[11]
  growth: did not inhibit
[12]; UACC 647, serum starved 3 hours, 15 minutes
  nadir of U-shaped dose-response curve of phosphorylated ERK levels: 1 nM
[13]
  nadir of U-shaped dose-response curve of phosphorylated ERK levels: 1 nM
[14]
  levels of phosphorylated MEK: decreased

## Cc1ccc(OCC(O)C(C)NC(C)C)c2c1CCC2 (stereo not shown) [ICI 118,551, 3-(isopropylamino)-1-[(7-methyl-4-indanyl)oxy]butan-2-ol, reference compound]
[1]
  effect of pretreatment on anti-migratory activity of MNF (100 nM): completely abolished
[12]; UACC647, pretreatment 50 nM
  effect of pretreatment on MNF-evoked drop in phospho ERK levels: abolished
